# Literature values in patent publication US11324962B2, “Magnetic field enhancement of chemotherapy for tumor treatment” (priority 2018, dated 2022).
# Conditions: in vivo
smiles,measurement,value
O=C1[O][Pt]2([NH][C@@H]3CCCC[C@H]3[NH]2)[O]C1=O [oxaliplatin],biological half-life,25 minutes
